Results taken from patent US20030047295A1, “Bio-bleaching of pulp using laccase, mediator, and chain transfer agent” (priority 2001, published 2003).

Assay: Pulp bleaching, delignification measured as Kappa number (TAPPI T236 cm-85)
Settings: for Kappa No.: 2 g pulp, starting Kappa 31
Protocol: Delignification of the pulp was measured as the change in Kappa number according to the TAPPI method T236 cm-85. A typical procedure is as follows. A known mass of paper pulp (containing lignin) is reacted with an excess of potassium permanganate in an acid solution for a specified period of time to oxidize the lignin. After the reaction, the residual permanganate is determined by titration. The Kappa number is defined as the volume (ml) of 0.1N potassium permanganate consumed by 1 g of moisture-free pulp in 0.5N sulfuric acid after a ten-minute reaction time at 25° C. under conditions such that one-half of the permanganate remains unreacted. A linear relationship with the lignin content of the pulp and the measurement of the Kappa number has already been done on samples as low as 300 mg of pulp.
A softwood Kraft pulp, Kappa number 31.0, was treated with a laccase (NS51003) under the following conditions:
The dried pulp was added to 80 ml of 50 mM phosphate, pH 5.5, and disintegrated in a blender. The pulp was then transferred to a 500 ml conical flask and the blender was washed with 20 ml of the same buffer. The washed buffer and the pulp were combined. The mediator was added at 1-4% (w/w, based on the dry pulp), followed by the addition of the laccase. The pH of the pulp mixture was adjusted to 5.5 if needed. The flask was covered with an aluminum foil with holes punched through and incubated at 50° C. for 16 hrs on a rotary shaker at 200 rpm.
After the enzymatic treatment, the pulp mixture was filtered through a Buchner funnel, and the pulp was washed with water. The pulp from the control experiment was treated at the same pH and temperature as described above.
The washed pulp was then treated with an alkaline solution under the following conditions:
The filtered pulp was repulped in the alkaline solution and incubated at 70° C. for 3 hrs. The pH of the pulp mixture should be between 11.7-12.00 during the entire treatment. After the treatment, the pulp mixture was filtered through a Buchner funnel, and the pulp was washed with water extensively and then dried in a hood overnight.
The delignification of the pulp was measured as a change in Kappa Number according to TAPPI method T236 cm-85.
In this example, we used the typical pulp bleaching experiment as described above. We also used laccase as the enzyme, hardwood black liquor (HWBL) as the mediator, and two chain transfer agents (anthracene and CBr4).

[1] = laccase 100 ul plus HWBL 200 ul as mediator plus chain transfer agent 20 mg

BrC(Br)(Br)Br [CBr4, carbon tetrabromide]
Kappa No. [1]: 24.4

On1nnc2ccccc21 [HBT, 1-hydroxybenzotriazole]
Kappa number reduction (in words) (0.1 ml of the 51003 laccase with the mediator): modest Kappa number reduction | Kappa No. (laccase 100 ul plus mediator (HBT 20 mg or HWBL 200 ul), no chain transfer agent): 26.1

c1ccc2cc3ccccc3cc2c1 [anthracene]
Kappa No. [1]: 25.4
